Values of other authors in patent US12403129B2, “Isotope-enriched 3-amino-1-propanesulfonic acid derivatives for the treatment of cerebrovascular disease” (RISEN (SUZHOU) PHARMA TECH CO., LTD., priority 2021, dated 2025).

Key:
[1] = target: interaction between PSD95 and nNOS (Homo sapiens, UniProt P29475+P78352); conditions: by blocking the interaction between PSD95 and nNOS; cited from earlier work
[2] = produces three potential metabolites; major metabolite 2-carboxyethanesulfonic acid; cited from earlier work

Sequence of interaction between PSD95 and nNOS (P78352 whole entry): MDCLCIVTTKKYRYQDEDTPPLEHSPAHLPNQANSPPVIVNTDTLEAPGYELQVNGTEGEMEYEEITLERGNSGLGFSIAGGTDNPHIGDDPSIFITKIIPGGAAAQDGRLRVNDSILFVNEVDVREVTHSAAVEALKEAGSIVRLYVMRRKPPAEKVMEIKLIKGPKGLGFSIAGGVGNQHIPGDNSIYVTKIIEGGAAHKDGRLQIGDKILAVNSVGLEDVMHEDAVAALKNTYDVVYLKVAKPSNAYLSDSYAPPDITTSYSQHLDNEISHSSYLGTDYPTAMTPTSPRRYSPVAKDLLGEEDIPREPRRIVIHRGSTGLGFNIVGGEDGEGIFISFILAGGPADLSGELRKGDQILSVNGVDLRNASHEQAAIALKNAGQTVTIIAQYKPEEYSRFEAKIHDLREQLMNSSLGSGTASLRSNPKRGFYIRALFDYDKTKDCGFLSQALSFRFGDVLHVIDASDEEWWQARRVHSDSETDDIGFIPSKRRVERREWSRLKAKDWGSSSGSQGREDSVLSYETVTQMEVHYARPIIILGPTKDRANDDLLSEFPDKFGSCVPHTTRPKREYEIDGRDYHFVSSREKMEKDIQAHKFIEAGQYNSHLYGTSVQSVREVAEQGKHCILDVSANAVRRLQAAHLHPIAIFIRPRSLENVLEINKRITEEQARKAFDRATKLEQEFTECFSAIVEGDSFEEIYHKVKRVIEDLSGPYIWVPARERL
Sequence of interaction between PSD95 and nNOS (P29475 whole entry): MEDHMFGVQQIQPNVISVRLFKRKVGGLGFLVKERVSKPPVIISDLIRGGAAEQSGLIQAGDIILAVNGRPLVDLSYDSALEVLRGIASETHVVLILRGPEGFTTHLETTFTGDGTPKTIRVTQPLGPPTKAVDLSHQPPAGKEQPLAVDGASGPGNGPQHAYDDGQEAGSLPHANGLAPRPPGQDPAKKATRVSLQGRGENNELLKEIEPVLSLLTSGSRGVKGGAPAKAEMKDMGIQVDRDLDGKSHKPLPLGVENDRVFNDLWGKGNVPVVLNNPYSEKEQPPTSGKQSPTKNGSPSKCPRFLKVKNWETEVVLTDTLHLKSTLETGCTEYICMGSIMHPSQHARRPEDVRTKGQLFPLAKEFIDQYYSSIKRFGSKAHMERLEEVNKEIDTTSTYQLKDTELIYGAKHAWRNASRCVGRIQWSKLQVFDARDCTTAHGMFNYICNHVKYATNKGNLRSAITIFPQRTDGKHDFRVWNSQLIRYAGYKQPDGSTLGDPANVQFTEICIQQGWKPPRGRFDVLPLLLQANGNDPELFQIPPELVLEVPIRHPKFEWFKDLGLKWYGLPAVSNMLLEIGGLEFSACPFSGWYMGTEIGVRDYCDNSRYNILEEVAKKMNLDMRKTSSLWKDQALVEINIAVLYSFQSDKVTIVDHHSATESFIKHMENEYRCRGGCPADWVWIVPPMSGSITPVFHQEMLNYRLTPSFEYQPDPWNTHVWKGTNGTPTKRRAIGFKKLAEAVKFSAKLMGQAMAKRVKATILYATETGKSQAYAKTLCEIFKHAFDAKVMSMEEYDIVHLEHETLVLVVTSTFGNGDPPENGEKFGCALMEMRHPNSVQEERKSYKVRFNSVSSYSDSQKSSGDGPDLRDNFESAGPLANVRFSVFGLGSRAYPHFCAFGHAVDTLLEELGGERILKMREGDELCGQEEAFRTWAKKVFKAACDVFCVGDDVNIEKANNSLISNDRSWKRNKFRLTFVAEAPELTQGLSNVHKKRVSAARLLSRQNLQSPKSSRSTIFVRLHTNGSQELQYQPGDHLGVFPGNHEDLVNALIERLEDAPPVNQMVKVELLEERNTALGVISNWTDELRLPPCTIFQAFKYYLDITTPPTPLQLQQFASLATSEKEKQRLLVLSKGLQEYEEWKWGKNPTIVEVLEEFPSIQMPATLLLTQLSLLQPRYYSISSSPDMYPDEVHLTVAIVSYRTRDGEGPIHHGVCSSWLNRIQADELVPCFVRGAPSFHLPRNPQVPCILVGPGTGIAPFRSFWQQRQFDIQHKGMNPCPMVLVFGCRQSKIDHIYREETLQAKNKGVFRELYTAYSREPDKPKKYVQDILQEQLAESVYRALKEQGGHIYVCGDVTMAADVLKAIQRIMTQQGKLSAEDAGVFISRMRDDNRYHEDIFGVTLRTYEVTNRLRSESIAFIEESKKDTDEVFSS

## NCCCS(=O)(=O)O [Tramiprosate, 3-amino-1-propanesulfonic acid]
[1]
  protection of neurons from ischemic stroke: can protect neurons from ischemic stroke
[2]
  metabolism in vivo: extensively metabolized
